This test relates to HCT-116 cell lines. In words: MTT cell proliferation assay. Format: cell-based. The protocol:
For cell culture experiments various cancer cell lines, HCT-116 colon cancer, U87-MG glial tumor, MCF7 breast cancer cell lines were used. Cells were seeded with high glucose DMEM medium (Biosera) supplemented with 10% FBS (Gibco) and 1× penicillin/streptomycin (Multicell). Twenty-four hours prior to molecule treatment, 10,000 cells were seeded into each well of 24-well cell culture plates. Molecules were used by preparing 4 mM stock solution in DMSO (Amresco). For molecule treatment, molecule stock solutions were diluted in DMEM with 10% FBS and added onto cells in each corresponding well. Final concentration of vehicle DMSO was 2% at maximum. […] We calculated the number of cells to be seeded to make sure that none of the cells reaches more than 60% confluency during the treatment period, as higher plate confluency levels would slow down cell proliferation independently from the molecule treatment.
Values of half-maximal inhibitory concentration were (IC50) determined by MTT cell proliferation assays. […] 570 nm absorbance values were recorded and IC50 values were calculated by dose response—inhibition curves and nonlinear regression analysis on GraphPad Prism 8 software. […] Following the initial incubation day, molecules were added and after incubation with MTT at 37° C. for 4 hours, formazan was solubilized with DMSO (Sigma-Aldrich, St. Louis, USA) and absorbance was measured at 570 nm. […]
On the technique in general: Tetrazolium assays rely on reduction of a dye to a coloured formazan, in cell work by metabolically active cells.

Each structure is given as a SMILES string.

For the molecule `Cc1ccc(C2CC(=O)N=C(SCC(=O)Nc3ccc(Br)cc3Cl)C2C#N)cc1` (centres unmarked) [compound of formula I], the “cell proliferation compared with vehicle group (FIG. 1)” value (HCT-116 cells, cell viability over time vs vehicle (max 2% DMSO)) is “reduced proliferation and apoptotic cell structures”. For the same molecule, the IC50 (Homo sapiens, 72 h, HCT-116 colon cancer cells, single treatment, three days results, 570 nm absorbance, read-out: IC50 value (half-maximal inhibitory concentration)) turned out to be 24 µM.

Values taken from US12297175B2, “Physics-driven discovery of novel small therapeutic compounds for use as a BCL-2 inhibitor” (BAHCESEHIR UNIVERSITESI, priority 2020, dated 2025).
